Reference: patent US8952024B2, “Herbicidal pyrimidone derivatives” (E I du Pont de Nemours and Company, priority 2009, dated 2015)

What was measured:
Assay in all cases: Test D pre-/postemergence plant response
Format in all cases: in vivo
[1] = system: quackgrass (Elytrigia repens)
Method in brief: (§1)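 Ratings come from greenhouse-grown weeds in loam and sand treated pre- or postemergence (postemergence height 2 to 18 cm). Evaluation after 14–21 days, visual, relative to controls, on a 0–100 control scale.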

[2] = system: dayflower (Virginia (VA) dayflower, Commelina virginica)
Method in brief: as §1

[3] = system: Italian ryegrass (Lolium multiflorum)
Method in brief: as §1

[4] = system: large crabgrass (Digitaria sanguinalis)
Method in brief: as §1

[5] = system: naked crabgrass (Digitaria nuda)
Method in brief: as §1

[6] = system: sandbur (southern sandbur, Cenchrus echinatus)
Method in brief: as §1

[7] = system: barnyardgrass (Echinochloa crus-galli)
Method in brief: as §1

[8] = system: dallisgrass (Paspalum dilatatum)
Method in brief: as §1

[9] = system: ragweed (common ragweed, Ambrosia elatior)
Method in brief: as §1

[10] = system: itchgrass (Rottboellia cochinchinensis)
Method in brief: as §1

[11] = system: signalgrass (broadleaf signalgrass, Brachiaria platyphylla)
Method in brief: as §1

[12] = system: guineagrass (Panicum maximum)
Method in brief: as §1

[13] = system: Surinam grass (Brachiaria decumbens)
Method in brief: as §1

[14] = system: bluegrass (annual bluegrass, Poa annua)
Method in brief: as §1

[15] = Postemergence, 16 g ai/ha, scale 0 to 100
[16] = Postemergence, 31 g ai/ha, scale 0 to 100
[17] = Postemergence, 125 g ai/ha, scale 0 to 100 (0 no effect, 100 complete control)
[18] = Postemergence, 62 g ai/ha, scale 0 to 100 (0 no effect, 100 complete control)
[19] = Preemergence, 16 g ai/ha, scale 0 to 100, 0 no effect, 100 complete control
[20] = Preemergence, 31 g ai/ha, scale 0 to 100 (0 no effect, 100 complete control)
[21] = Preemergence, 125 g ai/ha, scale 0 to 100
[22] = Preemergence, 62 g ai/ha, scale 0 to 100
[23] = Postemergence, 31 g ai/ha, scale 0 to 100 (0 no effect, 100 complete control)

O=C1CCCC(O)=C1C(=O)c1cnc(C2CC2)n(-c2ccccc2)c1=O [Compound 87]
75: Plant response rating, Crabgrass, Large [4, 17] | Plant response rating, Crabgrass, Large [4, 20] | Plant response rating, Crabgrass, Naked [5, 17] | Plant response rating, Dallisgrass [8, 17] | Plant response rating, Signalgrass [11, 21] | Plant response rating, Guineagrass [12, 21]
100: Plant response rating, Crabgrass, Large [4, 21] | Plant response rating, Crabgrass, Naked [5, 22] | Plant response rating, Crabgrass, Naked [5, 21] | Plant response rating, Surinam Grass [13, 21]
98: Plant response rating, Dallisgrass [8, 21] | Plant response rating, Ragweed [9, 17] | Plant response rating, Ragweed [9, 20] | Plant response rating, Ragweed [9, 21]
25: Plant response rating, Sandbur [6, 20] | Plant response rating, Dallisgrass [8, 15] | Plant response rating, Dallisgrass [8, 16] | Plant response rating, Bluegrass [14, 22]
65: Plant response rating, Dayflower, VA [2, 22] | Plant response rating, Dayflower, VA [2, 21] | Plant response rating, Crabgrass, Large [4, 16]
60: Plant response rating, Dayflower, VA [2, 18] | Plant response rating, Crabgrass, Naked [5, 16] | Plant response rating, Barnyardgrass [7, 18] | Plant response rating, Signalgrass [11, 17] | Plant response rating, Signalgrass [11, 18]
80: Plant response rating, Crabgrass, Naked [5, 20] | Plant response rating, Dallisgrass [8, 22] | Plant response rating, Ragweed [9, 16]
95: Plant response rating, Crabgrass, Large [4, 22] | Plant response rating, Sandbur [6, 21] | Plant response rating, Barnyardgrass [7, 21] | Plant response rating, Ragweed [9, 18]
0: Plant response rating, Quackgrass [1, 15] | Plant response rating, Quackgrass [1, 16] | Plant response rating, Quackgrass [1, 18] | Plant response rating, Quackgrass [1, 19] | Plant response rating, Quackgrass [1, 20] | Plant response rating, Quackgrass [1, 21] | Plant response rating, Dayflower, VA [2, 19] | Plant response rating, Dayflower, VA [2, 20] | Plant response rating, Ryegrass, Italian [3, 15] | Plant response rating, Ryegrass, Italian [3, 16] | Plant response rating, Ryegrass, Italian [3, 18] | Plant response rating, Ryegrass, Italian [3, 19] | Plant response rating, Ryegrass, Italian [3, 20] | Plant response rating, Sandbur [6, 19] | Plant response rating, Barnyardgrass [7, 19] | Plant response rating, Itchgrass [10, 15] | Plant response rating, Itchgrass [10, 16] | Plant response rating, Itchgrass [10, 19] | Plant response rating, Signalgrass [11, 19] | Plant response rating, Signalgrass [11, 20] | Plant response rating, Guineagrass [12, 19] | Plant response rating, Guineagrass [12, 20] | Plant response rating, Surinam Grass [13, 19] | Plant response rating, Bluegrass [14, 15] | Plant response rating, Bluegrass [14, 23] | Plant response rating, Bluegrass [14, 17] | Plant response rating, Bluegrass [14, 18]
50: Plant response rating, Crabgrass, Large [4, 19] | Plant response rating, Crabgrass, Naked [5, 15] | Plant response rating, Barnyardgrass [7, 23] | Plant response rating, Barnyardgrass [7, 22] | Plant response rating, Dallisgrass [8, 18] | Plant response rating, Dallisgrass [8, 19] | Plant response rating, Dallisgrass [8, 20] | Plant response rating, Guineagrass [12, 22] | Plant response rating, Surinam Grass [13, 20]
35: Plant response rating, Dayflower, VA [2, 16] | Plant response rating, Sandbur [6, 17] | Plant response rating, Barnyardgrass [7, 15] | Plant response rating, Bluegrass [14, 21]
40: Plant response rating, Crabgrass, Large [4, 15] | Plant response rating, Surinam Grass [13, 16] | Plant response rating, Surinam Grass [13, 17] | Plant response rating, Surinam Grass [13, 18]
30: Plant response rating, Ryegrass, Italian [3, 21] | Plant response rating, Ragweed [9, 19] | Plant response rating, Itchgrass [10, 17] | Plant response rating, Itchgrass [10, 18] | Plant response rating, Signalgrass [11, 16] | Plant response rating, Guineagrass [12, 17] | Plant response rating, Surinam Grass [13, 15]
70: Plant response rating, Dayflower, VA [2, 17] | Plant response rating, Crabgrass, Large [4, 18] | Plant response rating, Crabgrass, Naked [5, 18] | Plant response rating, Barnyardgrass [7, 17] | Plant response rating, Ragweed [9, 15]
10: Plant response rating, Dayflower, VA [2, 15] | Plant response rating, Guineagrass [12, 15]
20: Plant response rating, Sandbur [6, 18] | Plant response rating, Itchgrass [10, 20] | Plant response rating, Itchgrass [10, 22] | Plant response rating, Itchgrass [10, 21] | Plant response rating, Signalgrass [11, 15] | Plant response rating, Guineagrass [12, 16] | Plant response rating, Guineagrass [12, 18] | Plant response rating, Bluegrass [14, 19] | Plant response rating, Bluegrass [14, 20]
5: Plant response rating, Quackgrass [1, 17] | Plant response rating, Ryegrass, Italian [3, 17] | Plant response rating, Sandbur [6, 15] | Plant response rating, Sandbur [6, 16] | Plant response rating, Barnyardgrass [7, 20]

O=C1CCCC(O)=C1C(=O)c1cnc(-c2cccnc2)n(-c2ccccc2)c1=O [Compound 113, 5-[(2-hydroxy-6-oxo-1-cyclohexen-1-yl)carbonyl]-3-phenyl-2-(3-pyridinyl)-4(3H)-pyrimidone]
25: Plant response rating, Guineagrass [12, 15] | Plant response rating, Guineagrass [12, 16]
40: Plant response rating, Dayflower, VA [2, 16] | Plant response rating, Signalgrass [11, 16] | Plant response rating, Surinam Grass [13, 20]
65: Plant response rating, Dayflower, VA [2, 21] | Plant response rating, Crabgrass, Naked [5, 16] | Plant response rating, Barnyardgrass [7, 15] | Plant response rating, Itchgrass [10, 18] | Plant response rating, Guineagrass [12, 20]
5: Plant response rating, Sandbur [6, 15] | Plant response rating, Dallisgrass [8, 19] | Plant response rating, Signalgrass [11, 15]
35: Plant response rating, Ryegrass, Italian [3, 18] | Plant response rating, Barnyardgrass [7, 21]
30: Plant response rating, Quackgrass [1, 17] | Plant response rating, Crabgrass, Large [4, 20]
10: Plant response rating, Sandbur [6, 16] | Plant response rating, Dallisgrass [8, 15] | Plant response rating, Dallisgrass [8, 16] | Plant response rating, Itchgrass [10, 16]
90: Plant response rating, Crabgrass, Naked [5, 22] | Plant response rating, Sandbur [6, 21] | Plant response rating, Signalgrass [11, 21]
70: Plant response rating, Crabgrass, Large [4, 17] | Plant response rating, Crabgrass, Large [4, 18] | Plant response rating, Crabgrass, Naked [5, 18] | Plant response rating, Dallisgrass [8, 17] | Plant response rating, Ragweed [9, 15] | Plant response rating, Ragweed [9, 16] | Plant response rating, Itchgrass [10, 17] | Plant response rating, Guineagrass [12, 17]
80: Plant response rating, Barnyardgrass [7, 17] | Plant response rating, Barnyardgrass [7, 18] | Plant response rating, Ragweed [9, 17] | Plant response rating, Surinam Grass [13, 18]
0: Plant response rating, Quackgrass [1, 15] | Plant response rating, Quackgrass [1, 16] | Plant response rating, Quackgrass [1, 19] | Plant response rating, Quackgrass [1, 20] | Plant response rating, Quackgrass [1, 21] | Plant response rating, Ryegrass, Italian [3, 15] | Plant response rating, Ryegrass, Italian [3, 19] | Plant response rating, Ryegrass, Italian [3, 20] | Plant response rating, Ryegrass, Italian ([3]; Preemergence, rate not given, scale 0 to 100, 0 no effect, 100 complete control) | Plant response rating, Crabgrass, Naked [5, 19] | Plant response rating, Crabgrass, Naked [5, 20] | Plant response rating, Sandbur [6, 19] | Plant response rating, Sandbur [6, 20] | Plant response rating, Barnyardgrass [7, 19] | Plant response rating, Barnyardgrass [7, 20] | Plant response rating, Barnyardgrass [7, 22] | Plant response rating, Ragweed [9, 19] | Plant response rating, Itchgrass [10, 15] | Plant response rating, Itchgrass [10, 19] | Plant response rating, Itchgrass [10, 20] | Plant response rating, Itchgrass [10, 22] | Plant response rating, Itchgrass [10, 21] | Plant response rating, Signalgrass [11, 19] | Plant response rating, Signalgrass [11, 20] | Plant response rating, Guineagrass [12, 19] | Plant response rating, Bluegrass [14, 15] | Plant response rating, Bluegrass [14, 23] | Plant response rating, Bluegrass [14, 17] | Plant response rating, Bluegrass [14, 18] | Plant response rating, Bluegrass [14, 19] | Plant response rating, Bluegrass [14, 20] | Plant response rating, Bluegrass [14, 22] | Plant response rating, Bluegrass [14, 21]
60: Plant response rating, Dayflower, VA [2, 17] | Plant response rating, Dayflower, VA [2, 18] | Plant response rating, Crabgrass, Large [4, 15] | Plant response rating, Crabgrass, Large [4, 16] | Plant response rating, Sandbur [6, 17] | Plant response rating, Sandbur [6, 18] | Plant response rating, Dallisgrass [8, 18] | Plant response rating, Signalgrass [11, 18] | Plant response rating, Surinam Grass [13, 15]
95: Plant response rating, Crabgrass, Large [4, 22] | Plant response rating, Crabgrass, Large [4, 21] | Plant response rating, Surinam Grass [13, 21]
50: Plant response rating, Dayflower, VA [2, 19] | Plant response rating, Dayflower, VA [2, 20] | Plant response rating, Dayflower, VA [2, 22] | Plant response rating, Ryegrass, Italian [3, 17] | Plant response rating, Crabgrass, Naked [5, 15] | Plant response rating, Dallisgrass [8, 20] | Plant response rating, Dallisgrass [8, 22] | Plant response rating, Ragweed [9, 20] | Plant response rating, Guineagrass [12, 18]
20: Plant response rating, Quackgrass [1, 18] | Plant response rating, Dayflower, VA [2, 15] | Plant response rating, Ryegrass, Italian [3, 16] | Plant response rating, Ryegrass, Italian [3, 21] | Plant response rating, Crabgrass, Large [4, 19]
98: Plant response rating, Ragweed [9, 21]
75: Plant response rating, Crabgrass, Naked [5, 17] | Plant response rating, Barnyardgrass [7, 23] | Plant response rating, Ragweed [9, 18] | Plant response rating, Signalgrass [11, 17] | Plant response rating, Surinam Grass [13, 16]
100: Plant response rating, Crabgrass, Naked [5, 21] | Plant response rating, Dallisgrass [8, 21] | Plant response rating, Guineagrass [12, 22] | Plant response rating, Guineagrass [12, 21]
